Values of other authors, collected in US20230129072A1, “SYSTEM, PRODUCT AND METHOD FOR MAINTAINING THE VAGINAL MICROBIOME” (VAGINAL BIOME SCIENCE, INC., priority 2021, published 2023).

Assays:
[1] = tested on: herpes simplex virus (HSV-2); details: after a single exposure
[2] = tested on: Lactobacilli spp.

Compound | susceptibility to herpes simplex virus (HSV-2) [1] | toxicity to beneficial Lactobacilli spp. [2]
CC(O)CO (stereo not drawn) [propylene glycol] | markedly increased susceptibility | 
nonoxynol-9 [Example N9] |  | toxic
polyethylene glycol (PEG-8) | markedly increased susceptibility | 
